Strand notation (5' to 3'): a small letter for the sugar, then the base; units joined by * are phosphorothioate-linked, units joined directly phosphodiester-linked; [ ] holds rarer units or linkages, { } end groups; capitals alone tell only the bases. e = 2'-O-(2-methoxyethyl) (MOE); [5mC] = 5-methylcytosine; d = 2'-deoxy (DNA)
System: human IGF-IR mRNA
Assay: Antisense inhibition of human IGF-IR mRNA levels by quantitative RT-PCR (Table 1)
Assay type: cell-based
Set-up: %INHIB (human IGF-IR mRNA levels): concentration or dose not given beside the values
Conditions: for %INHIB (human IGF-IR mRNA levels): quantitative RT-PCR, averages from 3 experiments; for inhibition of IGF-IR expression (lead compounds): as shown in Table 1
Source text: Treatment of A549 cell cultures with oligonucleotides targeting IGF-IR is as described in WO 2004/072284.
Quantitation of IGF-IR mRNA levels was accomplished by RT-PCR using the ABI PRISM (trademark) 7600, 7700, or 7900 Sequence Detection System (PE-Applied Biosystems, Foster City, Calif.) according to manufacturer's instructions. This is a closed-tube, non-gel-based, fluorescence detection system which allows high-throughput quantitation of PCR products in real-time. As opposed to standard PCR in which amplification products are quantitated after the PCR is completed, products in real-time quantitative PCR are quantitated as they accumulate. This is accomplished by including in the PCR reaction an oligonucleotide probe that anneals specifically between the forward and reverse PCR primers, and contains two fluorescent dyes. A reporter dye (e.g., FAM or JOE, obtained from either PE-Applied Biosystems, Foster City, Calif., Operon Technologies Inc., Alameda, Calif. or Integrated DNA Technologies Inc., Coralville, Iowa) is attached to the 5′-end of the probe and a quencher dye (e.g., TAMRA, obtained from either PE-Applied Biosystems, Foster City, Calif., Operon Technologies Inc., Alameda, Calif. or Integrated DNA Technologies Inc., Coralville, Iowa) is attached to the 3′-end of the probe. When the probe and dyes are intact, reporter dye emission is quenched by the proximity of the 3′ quencher dye. During amplification, annealing of the probe to the target sequence creates a substrate that can be cleaved by the 5′-exonuclease activity of Taq polymerase. […] With each cycle, additional reporter dye molecules are cleaved from their respective probes, and the fluorescence intensity is monitored at regular intervals by laser optics built into the ABI PRISM (trademark) Sequence Detection System. In each assay, a series of parallel reactions containing serial dilutions of mRNA from untreated control samples generates a standard curve that is used to quantitate the percent inhibition after antisense oligonucleotide treatment of test samples.
PCR reagents were obtained from Invitrogen Corporation, (Carlsbad, Calif.). RT-PCR reactions were carried out by adding 20 μL PCR cocktail (2.5×PCR buffer minus MgCl2, 6.6 mM MgCl2, 375 μM each of dATP, dCTP, […] and dGTP, 375 nM each of forward primer and reverse primer, 125 nM of probe, 4 Units RNAse inhibitor, 1.25 Units PLATINUM (registered trademark) Taq, 5 Units MuLV reverse transcriptase, and 2.5×ROX dye) to 96-well plates containing 30 μL total RNA solution (20-200 ng). The RT reaction was carried out by incubation for 30 minutes at 48° C. Following a 10 minute incubation at 95° C. to activate the PLATINUM (trademark) Taq, 40 cycles of a two-step PCR protocol were carried out: 95° C. for 15 seconds (denaturation) followed by 60° C. for 1.5 minutes (annealing/extension).
Gene target quantities obtained by RT-PCR are normalized using either the expression level of GAPDH, a gene whose expression is constant, or by quantifying total RNA using RiboGreen (trademark) (Molecular Probes, Inc. Eugene, Oreg.). GAPDH expression is quantified by RT-PCR, by being run simultaneously with the target, multiplexing, or separately. Total RNA is quantified using RiboGreen (trademark) RNA quantification reagent (Molecular Probes, Inc. Eugene, Oreg.). Methods of RNA quantification by RiboGreen (trademark) are taught in Jones et al., 1998.
Probes and primers to human IGF-IR were designed to hybridize to the IGF-IR nucleotide sequence, using published sequence information (GenBank accession number NM000875 (SEQ ID NO:76) or M69229 (SEQ ID NO:77) which is the 5′ untranslated of the IGF-IR gene sequence (see FIG. 6).
In accordance with the present invention, a series of antisense compounds were designed to target different regions of the human IGF-IR mRNA or the 5′ untranslated region, using published sequences set forth in NM000875 (SEQ ID NO:77) and M69229 (SEQ ID NO:76). […]

Row | Substance | %INHIB (human IGF-IR mRNA levels) [%] | inhibition of IGF-IR expression (lead compounds)
1 | 323769 (antisense CATCACTGACCTCTTTCTAT; listed as DNA, chemistry not fully specified) [compound 323769] | 0 | 
2 | 323715 (antisense CCACAATGTAGTTATTGGAC; listed as DNA, chemistry not fully specified) [compound 323715] | 65 | 
3 | 323768 (antisense GGAGTTTAAAGGACAGTGCC; listed as DNA, chemistry not fully specified) [compound 323768] | 59 | 
4 | 175297 (antisense TGCTGGTAAACAAGAGCCCC; listed as DNA, chemistry not fully specified) [compound 175297] | 61 | 
5 | 323754 (antisense CATAGAAGAACACAGGATCT; listed as DNA, chemistry not fully specified) [compound 323754] | 33 | 
6 | 323767 (antisense CCAGCGTGTCTCTCAAATGG; listed as DNA, chemistry not fully specified) [compound 323767] | 84 | demonstrated inhibition
7 | 323727 (antisense GGAGTAATTCCCTTCTAGCT; listed as DNA, chemistry not fully specified) [compound 323727] | 21 | 
8 | 175300 (antisense GCTGGTAAACAAGAGCCCCA; listed as DNA, chemistry not fully specified) [compound 175300] | 54 | 
9 | 323732 (antisense GTGAGGGTCACAGCCTTGAC; listed as DNA, chemistry not fully specified) [compound 323732] | 59 | 
10 | 175317 (antisense CGAAGGAAACAATACTCCGA; listed as DNA, chemistry not fully specified) [compound 175317] | 84 | demonstrated inhibition
11 | 175312 (antisense TTTCAAACCCGGAGAGGCAG; listed as DNA, chemistry not fully specified) [compound 175312] | 31 | 
12 | 323740 (antisense CCACTCTGCTCTCAAAGAAA; listed as DNA, chemistry not fully specified) [compound 323740] | 0 | 
13 | 323765 (antisense AAAAAGCTGCTTGCATATTG; listed as DNA, chemistry not fully specified) [compound 323765] | 74 | 
14 | 175293 (antisense GTTAATGCTGGTAAACAAGA; listed as DNA, chemistry not fully specified) [compound 175293] | 40 | 
15 | 323753 (antisense AAGAACACAGGATCTGTCCA; listed as DNA, chemistry not fully specified) [compound 323753] | 38 | 
16 | 323745 (antisense AGCCTCGTGGTTGCAGCTGT; listed as DNA, chemistry not fully specified) [compound 323745] | 75 | 
17 | 323759 (antisense ATTTTGACTGTGAAATCTTC; listed as DNA, chemistry not fully specified) [compound 323759] | 13 | 
18 | 175314 (antisense e[5mC]*eT*e[5mC]*eG*e[5mC]*dT*dG*dA*dA*dG*dG*dT*d[5mC]*dA*d[5mC]*eA*eG*e[5mC]*e[5mC]*eG) [compound 175314] | 87 | demonstrated inhibition
19 | 323702 (antisense CGGCCTTGGAGATGAGCAGG; listed as DNA, chemistry not fully specified) [compound 323702] | 66 | 
20 | 175303 (antisense GAAGGTCACAGCCGAGGCGA; listed as DNA, chemistry not fully specified) [compound 175303] | 82 | 

Reference: patent US9084770B2, “Modulation of insulin like growth factor I receptor expression in cancer” (Antisense Therapeutics, Ltd., priority 2008, dated 2015)
